Results taken from patent US20040018501A1, “Methods and systems for analyzing complex biological systems” (priority 2001, published 2004).
“Also recorded” adds a separate entry of the source.

Legend:
Arabidopsis thaliana [1] = experiment: MOA1 gene expression profiling (22,000-gene microarray)
Description: Lyophilized tissues were first re-hydrated using [sequence] (Ambion, Inc., Austin, Tex.).

Arabidopsis thaliana [2] = experiment: MOA1 biochemical (metabolite) profiling by LC-MS and GC-MS
[3] = tested on: Arabidopsis thaliana plants; experiment: SOA1 phenotypic analysis of herbicide-treated plants; type: in vivo
Magnaporthe grisea = type: cell-based

| Compound | alterations in the expression of genes involved in the homogentisate biosynthetic pathway (Arabidopsis thaliana [1]; 1 hr) | No. of Lethal Genes Altered (Arabidopsis thaliana [1]; regulated genes compared to internal list of essential genes) | Alpha-tocopherol levels relative to the control (Arabidopsis thaliana [2]; early time points) | tyrosine and phenylalanine relative to the control (Arabidopsis thaliana [2]; early time points (up to 1 hour)) | characteristic symptoms (phenotype) ([3]; herbicide-treated plants) | tMic Dev. ([3]; numeric value standardized to mock treated) | Symptom Class ([3]; three-week-old plants, foliar spray) | growth inhibition with aromatic amino acids included in the media (Magnaporthe grisea; 1.0 mg/ml) | growth of M. grisea (Tier 4) (Magnaporthe grisea; ammonium or glutamine as nitrogen source) | Number of Metabolites Changed: Total # (Arabidopsis thaliana [2]; 20 min, p < 0.05) | tyrosine (downstream of SOA) relative to the control (Arabidopsis thaliana [2]; after one hour) |
| --- | --- | --- | --- | --- | --- | --- | --- | --- | --- | --- | --- |
| CS(=O)(=O)c1cc(C(F)(F)F)ccc1C(=O)c1cnoc1C1CC1 [Isoxaflutole] | not observed | 15 | not significantly changed | up-regulated; also recorded: began to accumulate | – | – | – | – | – | – | – |
| O=C(O)CNCP(=O)(O)O [Glyphosate] | – | – | – | – | anthocyanin accumulation in the older leaves accompanied by chlorosis of the newly emerging leaves | 2 | 4 | remediated | Little growth defect | 4 | decreased |
